Activity calls are given as the source filed them. The calls are words filed in the database; no cut-off is given here.
Tests used:
Homo sapiens [1] = species: Homo sapiens; experiment: Binding affinity to wild type TTR/Amyloid beta (1 to 40 residues) binary complex (unknown origin) assessed as Gibbs free energy change for binary complex by isothermal titration calorimetry
Homo sapiens [2] = species: Homo sapiens; experiment: Binding affinity to wild type TTR/Amyloid beta (1 to 40 residues) binary complex (unknown origin) assessed as change in entropy for binary complex by isothermal titration calorimetry
SH-SY5Y = experiment: Neuroprotective activity against amyloid beta (1 to 42 residues)-induced cell injury in human SH-SY5Y cells assessed as reduction in caspase 3 level; assay type: functional, cell-based
Homo sapiens [3] = species: Homo sapiens; experiment: Binding affinity to wild type TTR/Amyloid beta (1 to 40 residues) binary complex (unknown origin) assessed as change in enthalpy binary by isothermal titration calorimetry
[4] = target: Transthyretin (Homo sapiens) (UniProt P02766); experiment: Displacement of [125I]-T4 from human recombinant TTR expressed in Escherichia coli BL21(DE3) Star by gamma spectrometric analysis
[5] = Binding affinity to wild type TTR/Amyloid beta (1 to 40 residues) binary complex (unknown origin) assessed as complex dissociation constant by isothermal titration calorimetry; design: species or system Homo sapiens

SMILES	deltaG (Homo sapiens [1]) [kcal/mol]	-TdeltaS (Homo sapiens [2]) [kcal/mol]	Activity (SH-SY5Y)	deltaH (Homo sapiens [3]) [kcal/mol]	Activity [4]	Kd [5] [nM]
O=C(O)c1cc(-c2ccc(F)cc2F)cc(I)c1O	-7.67	-6.13	Active	-1.54	Active	
C=Cc1cc2oc(-c3ccc(O)c(F)c3)nc2cc1O					Active	
CC/C(=C(/CC)c1ccc(O)cc1)c1ccc(O)cc1					Active	
CCCCN(CCCC)C[C@H](O)c1cc(Cl)cc2c1-c1ccc(Cl)cc1/C2=C/c1ccc(Cl)cc1					Active	
CCc1ccc(CCOc2ccc(CC3SC(=O)NC3=O)cc2)nc1 (stereo not drawn)					Active	
COc1ccccc1Oc1ccc(N(Cc2cccnc2)S(=O)(=O)CC(F)(F)F)cc1					Active	
Cc1ccc(C(=O)c2cc(O)c(O)c([N+](=O)[O-])c2)cc1					Active	
O=C(O)CCNC(=O)CCNC(=O)c1cc(-c2ccc(F)cc2F)cc(I)c1O					Active	
O=C(O)c1cc(-c2ccc3ccccc3c2)cc(I)c1O					Active	
O=C(O)c1cc(/N=N/c2cccc([N+](=O)[O-])c2)cc(I)c1O					Active	
O=C(O)c1cc(/N=N/c2cccc([N+](=O)[O-])c2)ccc1O					Active	
O=C(O)c1ccc2nc(-c3cc(Cl)cc(Cl)c3)oc2c1					Active	
Oc1c(I)cc(Cl)c2cccnc12					Active	
Oc1c(I)cc(I)cc1I					Active	
O=C(O)c1ccccc1Nc1cccc(C(F)(F)F)c1 [FLUFENAMIC ACID]	-8.28	4.62	Active	-3.66		2340
O=c1cc(-c2ccc(O)c(O)c2)oc2cc(O)cc(O)c12 [LUTEOLIN]	-7.93	7.3	Active	-0.53	Active	1520
O=C(O)c1cc(/N=N/c2ccc(O)c(C(=O)O)c2)ccc1O [OLSALAZINE]	-8.7	0.02	Active	-8.72		810
CC1=C(CC(=O)O)c2cc(F)ccc2/C1=C\c1ccc([S+](C)[O-])cc1 (stereo not drawn) [SULINDAC]	-8.15	-4.92		-3.23		3420

Reference: ChEMBL document CHEMBL5154641, “Targeting transthyretin in Alzheimer's disease: Drug discovery of small-molecule chaperones as disease-modifying drug candidates for Alzheimer's disease” (Eur J Med Chem, 2021)
